# Laboratory results: PubChem BioAssay AID2060509 (Molecular Pharmacology Branch, DTP, NCI, 2025)
# Test system: 485176-168-R4-J1-PDC spheroids with HUVEC/MSC, viability
# Experiment: Anticancer human tumor 485176-168-R4-J1-PDC patient-derived pancreatic adenocarcinoma cell line growth inhibition [GQUAD]
# Conditions: for IC50: curve of first compound; for viability, T/C: stronger effect = lower value
# Method in brief: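 Multi-cell-type spheroids of tumor cells with HUVEC and mesenchymal stem cells, treated with drug combinations. Concentrations descend in half-log steps from near clinical Cmax, or from 10 microM where Cmax is unknown; viability read-out.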
# [1] = second compound 0.0316 µM, first compound 0.0316 µM
# [2] = second compound 0.0316 µM, first compound 0.1 µM
# [3] = second compound 0.0316 µM, first compound 0.316 µM
# [4] = second compound 0.0316 µM, first compound 1 µM
# [5] = second compound 0.0316 µM, first compound 3.16 µM
# [6] = second compound 0.0316 µM, first compound 10 µM
# [7] = second compound 0.1 µM, first compound 0.0316 µM
# [8] = second compound 0.1 µM, first compound 0.1 µM
# [9] = second compound 0.1 µM, first compound 0.316 µM
# [10] = second compound 0.1 µM, first compound 1 µM
# [11] = second compound 0.1 µM, first compound 3.16 µM
# [12] = second compound 0.1 µM, first compound 10 µM
# [13] = second compound 0.316 µM, first compound 0.0316 µM
# [14] = second compound 0.316 µM, first compound 0.1 µM
# [15] = second compound 0.316 µM, first compound 0.316 µM
# [16] = second compound 0.316 µM, first compound 1 µM
# [17] = second compound 0.316 µM, first compound 3.16 µM
# [18] = second compound 0.316 µM, first compound 10 µM
# [19] = second compound 1 µM, first compound 0.0316 µM
# [20] = second compound 1 µM, first compound 0.1 µM
# [21] = second compound 1 µM, first compound 0.316 µM
# [22] = second compound 1 µM, first compound 1 µM
# [23] = second compound 1 µM, first compound 3.16 µM
# [24] = second compound 1 µM, first compound 10 µM
# [25] = second compound 3.16 µM, first compound 0.0316 µM
# [26] = second compound 3.16 µM, first compound 0.1 µM
# [27] = second compound 3.16 µM, first compound 0.316 µM
# [28] = second compound 3.16 µM, first compound 1 µM
# [29] = second compound 3.16 µM, first compound 3.16 µM
# [30] = second compound 3.16 µM, first compound 10 µM
# [31] = second compound 10 µM, first compound 0.0316 µM
# [32] = second compound 10 µM, first compound 0.1 µM
# [33] = second compound 10 µM, first compound 0.316 µM
# [34] = second compound 10 µM, first compound 1 µM
# [35] = second compound 10 µM, first compound 3.16 µM
# [36] = second compound 10 µM, first compound 10 µM
# 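Also: spheroids exposed to compounds for seven days before readout.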
# 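For viability, T/C in this document: percent viability relative to DMSO vehicle control wells as 100%.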
structure (smiles),measurement,setting,value
CC1COCCN1c1cc(C2(O)CC3CCC(C2)O3)c2cnn(-c3ccn[nH]3)c2n1 (stereo not drawn) + Cc1[nH]c2ccc(F)cc2c1-c1nc2c3cccnc3c3ncccc3c2[nH]1,IC50,second compound 0.0316 µM,71.9 nM
same,IC50,second compound 0.1 µM,67.9 nM
same,IC50,second compound 0.316 µM,118 nM
same,IC50,second compound 1 µM,67.5 nM
same,IC50,second compound 3.16 µM,46.6 nM
same,IC50,second compound 10 µM,59.9 nM
same,"viability, T/C",[1],67.4%
same,"viability, T/C",[2],43%
same,"viability, T/C",[3],17.3%
same,"viability, T/C",[4],10.1%
same,"viability, T/C",[5],11.5%
same,"viability, T/C",[6],7.63%
same,"viability, T/C",[7],66.5%
same,"viability, T/C",[8],41.6%
same,"viability, T/C",[9],14.1%
same,"viability, T/C",[10],8.96%
same,"viability, T/C",[11],12%
same,"viability, T/C",[12],8.29%
same,"viability, T/C",[13],56.8%
same,"viability, T/C",[14],55.5%
same,"viability, T/C",[15],16.6%
same,"viability, T/C",[16],8.98%
same,"viability, T/C",[17],11.9%
same,"viability, T/C",[18],8.2%
same,"viability, T/C",[19],61.8%
same,"viability, T/C",[20],44%
same,"viability, T/C",[21],19.3%
same,"viability, T/C",[22],12.1%
same,"viability, T/C",[23],10.7%
same,"viability, T/C",[24],8.42%
same,"viability, T/C",[25],57.6%
same,"viability, T/C",[26],35%
same,"viability, T/C",[27],17.2%
same,"viability, T/C",[28],9.84%
same,"viability, T/C",[29],11.1%
same,"viability, T/C",[30],8.07%
same,"viability, T/C",[31],64.1%
same,"viability, T/C",[32],38.7%
same,"viability, T/C",[33],13.5%
same,"viability, T/C",[34],11.5%
same,"viability, T/C",[35],10.8%
same,"viability, T/C",[36],8.33%
COc1ccc([C@@H](O)c2cc(-c3ncnc4cc(N5CCOCC5)ccc34)c(F)cc2Cl)nn1 + Cc1[nH]c2ccc(F)cc2c1-c1nc2c3cccnc3c3ncccc3c2[nH]1,IC50,second compound 0.0316 µM,3020 nM
same,IC50,second compound 0.1 µM,2690 nM
same,IC50,second compound 0.316 µM,3660 nM
same,IC50,second compound 1 µM,2520 nM
same,IC50,second compound 3.16 µM,1850 nM
same,IC50,second compound 10 µM,1760 nM
same,"viability, T/C",[1],83.4%
same,"viability, T/C",[2],98.8%
same,"viability, T/C",[3],91.8%
same,"viability, T/C",[4],69.8%
same,"viability, T/C",[5],51.6%
same,"viability, T/C",[6],31.4%
same,"viability, T/C",[7],91.9%
same,"viability, T/C",[8],90.2%
same,"viability, T/C",[9],94.7%
same,"viability, T/C",[10],68.6%
same,"viability, T/C",[11],48.7%
same,"viability, T/C",[12],27.7%
same,"viability, T/C",[13],91.2%
same,"viability, T/C",[14],88.9%
same,"viability, T/C",[15],82%
same,"viability, T/C",[16],86.6%
same,"viability, T/C",[17],53.2%
same,"viability, T/C",[18],28.1%
same,"viability, T/C",[19],81%
same,"viability, T/C",[20],79%
same,"viability, T/C",[21],94.2%
same,"viability, T/C",[22],66.5%
same,"viability, T/C",[23],46.5%
same,"viability, T/C",[24],22.4%
same,"viability, T/C",[25],98.5%
same,"viability, T/C",[26],87.9%
same,"viability, T/C",[27],74.4%
same,"viability, T/C",[28],63.2%
same,"viability, T/C",[29],39.1%
same,"viability, T/C",[30],21.3%
same,"viability, T/C",[31],97.4%
same,"viability, T/C",[32],78.3%
same,"viability, T/C",[33],76%
same,"viability, T/C",[34],56%
same,"viability, T/C",[35],45.7%
same,"viability, T/C",[36],21.1%
Cn1ncnc1[C@H]1c2n[nH]c(=O)c3cc(F)cc(c23)N[C@@H]1c1ccc(F)cc1 + Cc1[nH]c2ccc(F)cc2c1-c1nc2c3cccnc3c3ncccc3c2[nH]1,IC50,second compound 0.0316 µM,> 316 nM
same,IC50,second compound 0.1 µM,> 316 nM
same,IC50,second compound 0.316 µM,> 316 nM
same,IC50,second compound 1 µM,> 316 nM
same,IC50,second compound 3.16 µM,> 316 nM
same,IC50,second compound 10 µM,> 316 nM
same,"viability, T/C","second compound 0.0316 µM, first compound 0.000999 µM",109%
same,"viability, T/C","second compound 0.0316 µM, first compound 0.00316 µM",80.7%
same,"viability, T/C","second compound 0.0316 µM, first compound 0.00999 µM",103%
same,"viability, T/C",[1],86.6%
same,"viability, T/C","second compound 0.0316 µM, first compound 0.0999 µM",91.8%
same,"viability, T/C",[3],109%
same,"viability, T/C","second compound 0.1 µM, first compound 0.000999 µM",90.9%
same,"viability, T/C","second compound 0.1 µM, first compound 0.00316 µM",92.2%
same,"viability, T/C","second compound 0.1 µM, first compound 0.00999 µM",88.3%
same,"viability, T/C",[7],109%
same,"viability, T/C","second compound 0.1 µM, first compound 0.0999 µM",93.4%
same,"viability, T/C",[9],99.5%
same,"viability, T/C","second compound 0.316 µM, first compound 0.000999 µM",78.3%
same,"viability, T/C","second compound 0.316 µM, first compound 0.00316 µM",95.6%
same,"viability, T/C","second compound 0.316 µM, first compound 0.00999 µM",101%
same,"viability, T/C",[13],117%
same,"viability, T/C","second compound 0.316 µM, first compound 0.0999 µM",97.9%
same,"viability, T/C",[15],84.4%
same,"viability, T/C","second compound 1 µM, first compound 0.000999 µM",77.2%
same,"viability, T/C","second compound 1 µM, first compound 0.00316 µM",90.2%
same,"viability, T/C","second compound 1 µM, first compound 0.00999 µM",94.3%
same,"viability, T/C",[19],90.5%
same,"viability, T/C","second compound 1 µM, first compound 0.0999 µM",87.2%
same,"viability, T/C",[21],88.9%
same,"viability, T/C","second compound 3.16 µM, first compound 0.000999 µM",85.5%
same,"viability, T/C","second compound 3.16 µM, first compound 0.00316 µM",89.3%
same,"viability, T/C","second compound 3.16 µM, first compound 0.00999 µM",86.2%
same,"viability, T/C",[25],79.7%
same,"viability, T/C","second compound 3.16 µM, first compound 0.0999 µM",96.4%
same,"viability, T/C",[27],85.1%
same,"viability, T/C","second compound 10 µM, first compound 0.000999 µM",106%
same,"viability, T/C","second compound 10 µM, first compound 0.00316 µM",86.2%
same,"viability, T/C","second compound 10 µM, first compound 0.00999 µM",89.5%
same,"viability, T/C",[31],77.9%
same,"viability, T/C","second compound 10 µM, first compound 0.0999 µM",91.7%
same,"viability, T/C",[33],78.5%
O=C(c1cc(Cc2n[nH]c(=O)c3ccccc23)ccc1F)N1CCN(C(=O)C2CC2)CC1 + Cc1[nH]c2ccc(F)cc2c1-c1nc2c3cccnc3c3ncccc3c2[nH]1,IC50,second compound 0.0316 µM,> 10000 nM
same,IC50,second compound 0.1 µM,> 10000 nM
same,IC50,second compound 0.316 µM,> 10000 nM
same,IC50,second compound 1 µM,> 10000 nM
same,IC50,second compound 3.16 µM,> 10000 nM
same,IC50,second compound 10 µM,> 10000 nM
same,"viability, T/C",[1],99.9%
same,"viability, T/C",[2],75.3%
same,"viability, T/C",[3],85.6%
same,"viability, T/C",[4],80.5%
same,"viability, T/C",[5],91.2%
same,"viability, T/C",[6],69.9%
same,"viability, T/C",[7],82.6%
same,"viability, T/C",[8],93.9%
same,"viability, T/C",[9],90.3%
same,"viability, T/C",[10],106%
same,"viability, T/C",[11],83.2%
same,"viability, T/C",[12],74.9%
same,"viability, T/C",[13],93.8%
same,"viability, T/C",[14],90.5%
same,"viability, T/C",[15],94.6%
same,"viability, T/C",[16],95.6%
same,"viability, T/C",[17],77.8%
same,"viability, T/C",[18],77.3%
same,"viability, T/C",[19],92.8%
same,"viability, T/C",[20],78.9%
same,"viability, T/C",[21],88.1%
same,"viability, T/C",[22],86.4%
same,"viability, T/C",[23],101%
same,"viability, T/C",[24],68.8%
same,"viability, T/C",[25],91.4%
same,"viability, T/C",[26],89.2%
same,"viability, T/C",[27],85.3%
same,"viability, T/C",[28],77.6%
same,"viability, T/C",[29],88.1%
same,"viability, T/C",[30],62.5%
same,"viability, T/C",[31],78.5%
same,"viability, T/C",[32],85.3%
same,"viability, T/C",[33],70.4%
same,"viability, T/C",[34],77.1%
same,"viability, T/C",[35],80%
same,"viability, T/C",[36],57.5%
